According to patent US9738641B2, “Bicyclic inhibitors” (Kalvista Pharmaceuticals Limited, priority 2013, dated 2017):

Experiments:
[1] = system: retinal vascular permeability and retinal blood flow; conditions: diabetic rats; cited from earlier work
[2] = in vivo; cited from earlier work
[3] = target: Human plasma kallikrein (Homo sapiens (Human), UniProt P03952); experiment: Determination of the IC50 for plasma kallikrein (fluorogenic substrate H-DPro-Phe-Arg-AFC); format: biochemical; conditions: 37° C., read-out: IC50 (human PKal)
Human plasma kallikrein, sequence (P03952 391-638): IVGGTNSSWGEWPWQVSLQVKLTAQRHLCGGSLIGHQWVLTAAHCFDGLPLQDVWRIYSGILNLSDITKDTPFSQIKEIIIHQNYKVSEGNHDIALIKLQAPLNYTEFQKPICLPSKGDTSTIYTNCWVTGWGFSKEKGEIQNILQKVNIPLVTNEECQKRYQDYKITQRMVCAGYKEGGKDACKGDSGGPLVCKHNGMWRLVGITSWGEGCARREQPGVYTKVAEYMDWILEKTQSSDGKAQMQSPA
Human plasma kallikrein, sequence (P03952 20-390 partner): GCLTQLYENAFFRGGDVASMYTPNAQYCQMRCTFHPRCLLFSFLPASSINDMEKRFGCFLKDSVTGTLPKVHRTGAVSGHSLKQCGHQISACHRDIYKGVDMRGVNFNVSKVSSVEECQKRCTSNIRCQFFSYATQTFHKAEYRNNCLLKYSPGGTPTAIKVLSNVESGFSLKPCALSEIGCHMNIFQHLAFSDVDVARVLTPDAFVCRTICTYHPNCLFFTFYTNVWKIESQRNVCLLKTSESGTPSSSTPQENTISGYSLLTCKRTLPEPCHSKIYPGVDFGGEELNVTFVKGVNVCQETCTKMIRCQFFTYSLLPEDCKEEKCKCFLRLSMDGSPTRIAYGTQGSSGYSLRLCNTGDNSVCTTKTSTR
Description: Determination of the IC50 for Plasma Kallikrein
(§1) Plasma kallikrein inhibitory activity in vitro was determined using standard published methods (see e.g. Johansen et al., Int. J. Tiss. Reac. 1986, 8, 185; Shori et al., Biochem. Pharmacol., 1992, 43, 1209; Stürzebecher et al., Biol. Chem. Hoppe-Seyler, 1992, 373, 1025). Human plasma kallikrein (Protogen) was incubated at 37° C. with the fluorogenic substrate H-DPro-Phe-Arg-AFC and various concentrations of the test compound. Residual enzyme activity (initial rate of reaction) was determined by measuring the change in optical absorbance at 410 nm and the IC50 value for the test compound was determined.

[4] = target: Human KLK1 (Homo sapiens (Human), UniProt P06870); experiment: Determination of the IC50 for KLK1 (fluorogenic substrate H-DVal-Leu-Arg-AFC); format: biochemical; conditions: 37° C.
Human KLK1, sequence (P06870 25-262): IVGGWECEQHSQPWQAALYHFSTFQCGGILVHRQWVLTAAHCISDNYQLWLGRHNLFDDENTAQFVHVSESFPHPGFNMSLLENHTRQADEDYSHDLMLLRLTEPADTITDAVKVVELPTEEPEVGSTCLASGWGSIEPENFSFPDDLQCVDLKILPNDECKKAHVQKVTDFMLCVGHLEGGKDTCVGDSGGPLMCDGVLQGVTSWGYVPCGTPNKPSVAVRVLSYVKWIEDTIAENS
Description: Determination of the IC50 for KLK1
as §1, with “KLK1” for “Plasma kallikrein”, “KLK1 (Callbiochem)” for “plasma kallikrein (Protogen)”, “H-DVal-Leu-Arg-AFC” for “H-DPro-Phe-Arg-AFC”

In the case of `N=C(N)c1ccc(CNC(=O)c2cnn(Cc3ccccc3)c2)cc1` [ASP-440], the “effect on retinal vascular permeability and retinal blood flow abnormalities” value [1] is given as “ameliorated both retinal vascular permeability and retinal blood flow abnormalities” and the oral availability [2] is given as “poor oral availability”.

In the case of `O=c1ccccn1Cc1ccc(Cn2ccc3c(NCc4cnc5[nH]ccc5c4)nccc32)cc1` [Example 3, 1-(4-{4-[(1H-Pyrrolo[2,3-b]pyridin-5-ylmethyl)-amino]-pyrrolo[3,2-c]pyridin-1-ylmethyl}-benzyl)-1H-pyridin-2-one], the IC50 [3] is reported as 5.46 µM and the IC50 [4] is reported as 5.69 µM.

`c1ccc(-c2nc(Cn3ccc4c(NCc5cnc6[nH]ccc6c5)nccc43)cs2)cc1` [Example 4, [1-(2-Phenyl-thiazol-4-ylmethyl)-1H-pyrrolo[3,2-c]pyridin-4-yl]-(1H-pyrrolo[2,3-b]pyridin-5-ylmethyl)-amine] showed an IC50 [3] of 5.32 µM and an IC50 [4] of 10.3 µM.

In the case of `NCc1ccc(CNc2nccc3c2ccn3CCCCc2ccccc2)cc1` [Example 5, (4-Aminomethyl-benzyl)-[1-(4-phenyl-butyl)-1H-pyrrolo[3,2-c]pyridin-4-yl]-amine], the IC50 [3] is reported as 29 µM and the IC50 [4] is reported as 38.6 µM.

Work on `Cc1cc(CN)ccc1CNc1nccc2c1ccn2Cc1csc(-c2ccccc2)n1` [Example 6, (4-Aminomethyl-2-methyl-benzyl)-[1-(2-phenyl-thiazol-4-ylmethyl)-1H-pyrrolo[3,2-c]pyridin-4-yl]-amine] yielded an IC50 [3] of 8.59 µM and an IC50 [4] of 8.14 µM.

For `NCc1ccc(CNc2nccc3c2ccn3Cc2ccc(Cn3ccccc3=O)cc2)cc1` [Example 7, 1-{4-[4-(4-Aminomethyl-benzylamino)-pyrrolo[3,2-c]pyridin-1-ylmethyl]-benzyl}-1H-pyridin-2-one], the IC50 [3] was 5.37 µM and the IC50 [4] was 29.9 µM.

With `Cc1cc(CN)ccc1CNc1nccc2c1ccn2Cc1ccc(Cn2ccccc2=O)cc1` [Example 8, 1-{4-[4-(4-Aminomethyl-2-methyl-benzylamino)-pyrrolo[3,2-c]pyridin-1-ylmethyl]-benzyl}-1H-pyridin-2-one] the IC50 [3] was 6.3 µM and the IC50 [4] was 5.3 µM.

Compound `NCc1ccc(CNc2nccc3c2ccn3Cc2csc(-c3ccccc3)n2)cc1` [Example 9, (4-Aminomethyl-benzyl)-[1-(2-phenyl-thiazol-4-ylmethyl)-1H-pyrrolo[3,2-c]pyridin-4-yl]-amine] has an IC50 [3] of 8.1 µM and an IC50 [4] of 8.26 µM.

`Cc1cnn(Cc2ccc(CN3CCOc4c(NCc5ccc6c(N)nccc6c5)ncnc43)cc2)c1` [Example 10, (1-Amino-isoquinolin-6-ylmethyl)-{8-[4-(4-methyl-pyrazol-1-ylmethyl)-benzyl]-7,8-dihydro-6H-pyrimido[5,4-b][1,4]oxazin-4-yl}-amine] showed an IC50 [3] of 20.5 µM and an IC50 [4] of 5.04 µM.
